From patent US5525350A, “Supplementation of protein diets with di- and tripeptides” (Kansas State University Research Foundation, priority 1994, dated 1996)
Where a name gives a salt, the structure may show the parent alone. Peptide text beside a SMILES is read from it.

Legend:
[1] = serum urea nitrogen (nitrogen utilization) in starter pigs; type: in vivo; details: for d 7 urea N: day 7; for d 14 urea N: day 14
Excerpt: (§1) A trial of 180 (21±2 days of age) pigs was used in a growth assay to compare the effects of supplementing the pigs' diet with L-lysine^. HCl, 98% (78.5% lysine), and the dipeptide L-lysyl-glycine^. HCl (approximately 50% lysine) on starter pig performance and nitrogen utilization. Pigs were blocked (n=5) by initial weight (6.3 kg) and assigned to treatments according to ancestry and sex. Feed and water were available ad libitum for 21 days post-weaning (11.7 kg final weight). The control diets were formulated to include 0.9% and 1.1% lysine respectively, using a corn-soybean meal mixture containing 15% edible grade dried whey. Synthetic lysine^. HCl and the dipeptide lysyl-glycine were added to the control diets to form test diets containing 1.0% and 1.1% lysine and lysyl-glycine respectively. The following table sets forth each of the six diets used in this study.
(§2) Serum samples were obtained on days 7, 14, and 21 for analysis of urea nitrogen. Data were analyzed as a randomized complete block design and means were separated using Bonferroni pared t-tests. Single df contrasts were used to evaluate differences between the two lysine sources and levels. No differences in daily gain or daily feed intake were observed between treatments. In general, pigs consuming the 1.1% lysine corn-soybean meal control diet had higher urea nitrogen than the pigs consuming the reduced protein diets and those consuming the 1.1% lysine, lysyl-glycine supplemented diet had the lowest urea nitrogen. Pigs consuming the diets containing lysyl-glycine had lower urea nitrogen levels than pigs fed the lysine^. HCl diets on day 21. […] HCl as evidenced by the lower serum urea nitrogen levels on day 21.

[2] = tested on: pigs; experiment: growth assay, starter pig performance 0-21 days post-weaning; type: in vivo; details: for Daily gain: fed ad libitum
Excerpt: as §1, §2

[3] = serum, day 21, diet 1.0% lysine
[4] = serum, day 21, diet 1.1% lysine

NCCCC[C@H](N)C(=O)O [Lysine HCl, L-lysine^. HCl, reference compound]
d 7 urea N ([1]; serum, diet 1.0% lysine): 9.5 mg/dL
d 7 urea N ([1]; serum, diet 1.1% lysine): 9.2 mg/dL
d 14 urea N ([1]; serum, diet 1.0% lysine): 9.6 mg/dL
d 14 urea N ([1]; serum, diet 1.1% lysine): 8.4 mg/dL
d 21 urea N [1, 3]: 10.7 mg/dL
d 21 urea N [1, 4]: 8.5 mg/dL
Daily feed ([2]; diet 1.0% lysine): 460 g
Gain/feed ([2]; diet 1.0% lysine): 600
Daily gain ([2]; diet 1.0% lysine): 276 g
Daily feed ([2]; diet 1.1% lysine): 413 g
Gain/feed ([2]; diet 1.1% lysine): 613
Daily gain ([2]; diet 1.1% lysine): 253 g

NCCCC[C@H](N)C(=O)NCC(=O)O [Lysyl-glycine, L-lysyl-glycine^. HCl] (H-Lys-Gly-OH)
amino acid utilization compared with lysine HCl ([1]; as evidenced by lower serum urea nitrogen on day 21): more efficiently utilized
d 7 urea N ([1]; serum, diet 1.0% lysine): 9.7 mg/dL
d 7 urea N ([1]; serum, diet 1.1% lysine): 8.5 mg/dL
d 14 urea N ([1]; serum, diet 1.0% lysine): 8.9 mg/dL
d 14 urea N ([1]; serum, diet 1.1% lysine): 8.6 mg/dL
urea nitrogen levels compared with pigs fed the lysine HCl diets ([1]; serum, day 21, P = 0.05): lower
d 21 urea N [1, 3]: 9.1 mg/dL
d 21 urea N [1, 4]: 7.9 mg/dL
urea nitrogen compared with the other diets ([1]; serum, 1.1% lysine, lysyl-glycine supplemented diet, in general): lowest
Daily feed ([2]; diet 1.0% lysine): 395 g
Gain/feed ([2]; diet 1.0% lysine): 547
Daily gain ([2]; diet 1.0% lysine): 218 g
Daily feed ([2]; diet 1.1% lysine): 432 g
Gain/feed ([2]; diet 1.1% lysine): 643
Daily gain ([2]; diet 1.1% lysine): 280 g
